Reference: patent US20100266589A1, “ADJUVANT CANCER THERAPY” (priority 2009, published 2010)

System: patients with resected stages II and III carcinoma of the colon
Assay: NSABP C-08 clinical trial: bevacizumab added to mFOLFOX6 as adjuvant therapy
Type: in vivo
From the text: This example concerns analysis of results obtained from colorectal cancer subjects treated in the National Surgical Adjuvant Breast and Bowel Project (NSABP C-08) clinical trial. The primary aim of the study was to determine the clinical benefit of adding bevacizumab to standard chemotherapy for treating colorectal cancer, as measured by disease-free survival (DFS). A secondary goal was to determine if there was clinical benefit in prolonging overall survival. The standard chemotherapy used in this trial was a combination of leucovorin, 5-fluorouracil and oxaliplatin. This trial evaluated the efficacy of bevacizumab (AVASTIN®) as adjuvant therapy for patients with resected stages II and III carcinoma of the colon.
In the NSABP C-08 trial, the following treatment protocol was used:
Arm A/Group 1: modified FOLFOX6 (mFOLFOX6: oxaliplatin (85 mg/m^2) with concurrent leucovorin (400 mg/m^2) and 5-FU (400 mg/m^2 IV bolus) on Day 1 and 5-FU (2400 mg/m^2) over 46 hours on Day 1 and Day 2) q 14 days for 12 cycles (6 months);
Arm B/Group 2: modified FOLFOX6 q 14 days for 12 cycles (6 months) plus bevacizumab administered before oxaliplatin on Day 1 of each chemotherapy cycle (5 mg/kg IV) q 14 days for 1 year.
The primary endpoint of this trial was duration of disease free survival (DFS). […]
2,710 patients were accrued to the study (1,356 to the contol arm and 1,354 to the experimental arm). 18 patients on the control arm and 20 patients on the experimental arm were not evaluated for efficacy due to no follow-up or positive surgical margins. […]
Time to an event was measured from randomization. All p-values, other than the primary endpoint, were evaluated as significant at the 0.05 level two-sided. […] Hazard ratios (HR) were calculated from Cox models and p-values from time to event were from the log rank test. […] Smooth estimates of the underlying hazard functions were calculated by the method of Muller and Wang (Biometrics 1994 50:61-76). Smooth estimates of the ratio of the underlying hazards were calculated by the method of Gilbert et al. (Biometrics 2002 58:773-80).

## Bevacizumab: recombinant humanized anti-VEGF monoclonal antibody; human IgG1 framework with CDRs from murine antibody A.4.6.1
DFS, 1.25 years after initiation of treatment, vs mFOLFOX6 alone, 95% CI 0.48-0.78, p <0.0001
  HR: 0.61
Added to chemotherapy vs chemotherapy alone
  toxicities or adverse effects (in words): not associated with any increased toxicities or adverse effects
Added to chemotherapy vs chemotherapy alone, during the first year (active treatment phase)
  effect on DFS (in words): significantly increased DFS
